# Source: patent publication US10973840B2, “Methods of sensitizing tumor cells to weak base chemotherapeutic drugs” (SOCPRA SCIENCES SANTÉ ET HUMAINES S.E.C., priority 2017, dated 2021)
# Like-named read-outs stand apart in the source and are kept apart here.
# How the values were obtained:
# HT-1080 tumor xenografts = test: Chorioallantoic membrane (CAM) xenograft assay, HT-1080; format: in vivo, chick embryo; settings: HT-1080 on CAM
# Experimental: Fertilized eggs from white leghorn chicken were obtained from Public Health Agency of Canada (Nepean, ON). Ethics approval was obtained from the Ethics Committee on Animal Research of the University of Sherbrooke and all experimental procedures involving embryos were conducted in accordance with the regulations of the Canadian Council on Animal Care. Eggs were incubated in an Ova-Easy egg incubator (Brinsea) at 37° C. with 60% humidity. At Day 3, eggs were cracked as described^67. At Day 9, HT-1080 and MDA-MB-231 cell suspensions (1×10^6 and 2×10^6 cells, respectively) were mixed (1:1) with growth factor reduced Matrigel (BD Biosciences) in a total volume of 20 μl. Cell grafts were placed on top of the CAM and eggs were returned to the incubator for 96 h until Day 13 (n>6 chick embryos per cell line). When mentioned, 50 μl of Dox were added topically to the formed tumors (Day 13 after tumor cell grafting). At Day 16, chick embryos were euthanatized by decapitation. Tumors were removed and tumor volumes were calculated using the formula: (Dd^2/3). For RNA quantification, tumors were immediately snap-frozen in liquid nitrogen and kept at −80° C. until RNA extraction using the Trizol reagent.
# To determine whether these observations were of relevance to tumor therapy in vivo, the inventors used an ex ovo chorioallantoic membrane (CAM) xenograft model in live chicken embryos^40. MDA-MB-231 or HT-1080 cells, or cells expressing either the NHE6^527-588 competing fragment or its scrambled counterpart were inoculated onto the CAM of 9-day-old chick embryos. After allowing 3 days for cells to engraft, tumors were treated with Doxorubicin or PBS. Four days later, chick embryos were euthanized, and tumors were removed for analysis (FIG. 10A). To first ascertain that tumors implanted in CAM developed hypoxia, total mRNA was extracted from tumors generated by untransfected HT-1080 cells and gene expression of the hypoxic markers CA9, GLUT1 and MCT4 was measured by qPCR. […]
# [1] = tested on: HT-1080 fibrosarcoma cells; test: MTT cell viability assay, HT-1080; format: cell-based, human; settings: for Fold change: HT-1080, IC50 at 1% O2 to IC50 at 21% O2; for IC50: Homo sapiens
# Experimental: (§1) Cells (5×10^3) were cultured in 96-well plates and pre-incubated under 21% O2 or 1% O2 for 4 h following the addition of drugs for 72 h. Cell viability was measured using the 3-(4,5-dimethylthiazol-2-yl)-2,5-diphenyltetrazolium bromide (MTT) dye (Life Technologies) according to manufacturer's instructions. Because hypoxic conditions may affect the reduction of MTT to formazan, incubation of all cell cultures with MTT were performed under normoxic conditions. Each experiment was performed in triplicate and at least three independent experiments were performed. Log-scale dose-response data were plotted on a graph and a three-parameter non-linear regression was applied to determine IC50 values. For calculation of the IC50s, both normoxic and hypoxic drug-treated samples were normalized with their untreated counterpart.
# (§2) To assess the role of pH in hypoxia-induced resistance to anthracyclines, the human breast cancer MDA-MB-231 and fibrosarcoma HT-1080 cell lines were incubated in the presence or absence of the commonly used anthracycline drugs, doxorubicin (Dox), daunorubicin (Dau) and the anthracycline analog drug, mitoxantrone (Mtx), under hypoxic (1% O2) or normoxic (21% O2) conditions for 72 hours. Cell viability was then assessed using the MTT assay. The impact of extracellular pH on Dox uptake by HT-1080 was also assessed.
# [2] = tested on: MDA-MB-231 breast cancer cells; test: MTT cell viability assay, MDA-MB-231; format: cell-based, human; settings: for IC50: Homo sapiens; for Fold change: MDA-MB-231, IC50 at 1% O2 to IC50 at 21% O2
# Experimental: as §1, §2
# [3] = tested on: HT-1080 overexpressing NHE6^527-588 peptide; test: MTT cell viability assay in HT-1080 expressing NHE6^527-588 or scrambled peptide; format: cell-based, human; settings: for IC50: Homo sapiens, read-out: IC50 of doxorubicin
# Experimental: peGFP-N3-NHE6 was generously provided by Hiroshi Kanazawa (Osaka University, Japan). pcDNA3-HA/NHE6 was constructed from peGFP-N3-NHE6. For this, the entire NHE6 coding sequence was excised with BamHI and EcoRI restriction enzymes and cloned in pcDNA3-HA vector. pcDNA3-HA/NHE6^527-588 was designed from pcDNA3-HA/NHE6 using the following primers: […]
# HT-1080 cells were stably transfected with Polyethylenimine (PEI, MirusBio) and positive cells were selected with Geneticin™ (G418) at 400 μg/mL. In the case of MDA-MB-231 cells, plasmids were transfected using Lipofectamine™ 2000 ([…]) and G418 was added to cell cultures at a concentration of 2 mg/mL.
# as §1
# The middle portion (position 527-588) of the NHE6 cytoplasmic tail has previously been reported to interact with RACK1^31. Stable HT-1080 cells expressing the NHE6^527-588 fragment or a scrambled counterpart were generated.
# [4] = Baf 100 nM or Cq 10 μM where combined
structure (smiles),measurement,setting,value
"COc1cccc2c1C(=O)c1c(O)c3c(c(O)c1C2=O)C[C@@](O)(C(=O)CO)C[C@@H]3O[C@H]1C[C@H](N)[C@H](O)[C@H](C)O1 [Dox, doxorubicin]",tumor growth,HT-1080 tumor xenografts; 0.5 μM Dox,unaffected
same,tumor growth,HT-1080 tumor xenografts; 2 μM Dox topical,significantly reduced
same,Fold change,[1],4.1 fold
same,Fold change,[1]; [4],4.0 fold
same,increase in resistance toward the drug by hypoxia,"[1]; HT-1080 cells (so in the source), 1% O2 vs 21% O2",5.5 fold
same,IC50,"[1]; HT-1080, 72 h, HT-1080, 1% O2, 72 h, read-out: IC50 of anthracyclines",301 nM
same,IC50,"[1]; HT-1080, 72 h, HT-1080, 21% O2, 72 h, read-out: IC50 of anthracyclines",73.4 nM
same,IC50,"[1]; HT-1080, HT-1080, 1% O2, Baf 100 nM or Cq 10 μM where combined, read-out: IC50 of doxorubicin, cells treated with neutralizing agents",448 nM
same,IC50,"[1]; HT-1080, HT-1080, 21% O2, Baf 100 nM or Cq 10 μM where combined, read-out: IC50 of doxorubicin, cells treated with neutralizing agents",113 nM
same,IC50,"[2]; MDA-MB-231, 72 h, MDA-MB-231, 1% O2, 72 h, read-out: IC50 of anthracyclines",688 nM
same,IC50,"[2]; MDA-MB-231, 72 h, MDA-MB-231, 21% O2, 72 h, read-out: IC50 of anthracyclines",125 nM
same,IC50,"[2]; MDA-MB-231, MDA-MB-231, 1% O2, Baf 100 nM or Cq 10 μM where combined, read-out: IC50 of doxorubicin, cells treated with neutralizing agents",852 nM
same,IC50,"[2]; MDA-MB-231, MDA-MB-231, 21% O2, Baf 100 nM or Cq 10 μM where combined, read-out: IC50 of doxorubicin, cells treated with neutralizing agents",168 nM
same,Fold change,[2],5.5 fold
same,Fold change,[2]; [4],5.1 fold
same,IC50,"[3]; HT-1080, HT-1080 expressing scrambled peptide (scr), 1% O2",521 nM
same,IC50,"[3]; HT-1080, HT-1080 expressing scrambled peptide (scr), 21% O2",117 nM
same,IC50,"[3]; HT-1080, HT-1080 overexpressing NHE6^527-588 peptide, 1% O2",224 nM
same,IC50,"[3]; HT-1080, HT-1080 overexpressing NHE6^527-588 peptide, 21% O2",137 nM
same,Fold,"[3]; NHE6^527-588, 1% O2 vs 21% O2",1.6 fold
same,Fold,"[3]; scr, 1% O2 vs 21% O2",4.4 fold
